We go through three compounds from patent publication US9518283B1, “Selective enrichment media and uses thereof” (priority 2012, dated 2016).

Test [1] relates to Shiga toxin-producing E. coli and Salmonella. It counts as cell-based.
Test [2] concerns non-Salmonella gram negative species. As to the kind of experiment: Media formulations / selective agents tested against competitor species. It counts as cell-based. The protocol: Several media formulations were tested for permitting growth of Salmonella while inhibiting growth of non-Salmonella species. […] To minimize the potential of such environmental microflora to contribute to false positive reactions in selective indicator media, flavonoid compounds were investigated. Myricetin was tested as a potential suitable inhibitor for at least some of these gram negative species.

Take `CCN(CC)c1ccc(C(=C2C=CC(=[N+](CC)CC)C=C2)c2ccccc2)cc1` [Brilliant green]: the “effect against Shiga toxin-producing E. coli (or Salmonella)” value in test [1] is given as “no effect”.
As to `O=c1c(O)c(-c2cc(O)c(O)c(O)c2)oc2cc(O)cc(O)c12` [Myricetin], the effectiveness as inhibitor entry is given as “of little use” in test [2] (Citrobacter and E. coli inactive isolates); “effective” in test [2] (K. oxytoca and E. aerogenes). Also, in test [2] (Enterobacter and Klebsiella spp.), the inhibition result is “inhibits”.
Turning to `O=C1CN(N=Cc2ccc([N+](=O)[O-])o2)C(=O)N1` [nitrofurantoin, 1-[[(5-Nitro-2-furanyl)methylene]amino]-2,4-imidazolidinedione], the “effectiveness against Shiga toxin-producing E. coli and Salmonella” value in test [1] is reported as “surprisingly ineffective”.
